≈ marks a conversion by molar mass, not a printed value. Like-named read-outs stand apart in the source and are kept apart here.
Tests used:
[1] = target: UDP-galactose mutase (Glf) (Mycobacterium tuberculosis, UniProt P9WIQ1); assay: microtitre plate based screen of Glf (enzymatic inhibition); format: biochemical; settings: in words
[2] = Maximum Tolerated Dose (MTD), single oral dose; settings: mice, oral gavage, escalating dose 100, 300 and 500 mg/kg
Experimental: An assay for Maximum Tolerated Dose (MTD) was also utilized. […] Three different concentrations are tested, generally at 100, 300 and 500 mg/kg. The latter dose is about twice to five times the dose used for efficacy testing of the compound in mice. After 7 days of observation the mice are sacrificed and the organs are studied for any adverse effects. In case of abnormalities the organs are fixed in formalin and given for extensive pathology analysis.
Maximum tolerated dosing was performed on these selected compounds. An escalating dose of drug (100, 300 and 500 mg/kg) was given to mice by oral gavage.

M. tuberculosis = format: in vivo, mice; settings: in words
M. tuberculosis H37Ra = assay: MIC against M. tuberculosis H37Ra, micro broth dilution in microtiter plates
[3] = Mycobacterium tuberculosis, H37RA
[4] = Mycobacterium tuberculosis, H37RA, Table 5, M. tuberculosis H37Ra, MIC90
[5] = Table 5, M. tuberculosis H37Ra, MIC90
[6] = Mycobacterium tuberculosis, H37RA, Table 6, M. tuberculosis H37Ra, MIC90

UDP-galactose mutase (Glf), sequence (P9WIQ1 whole entry): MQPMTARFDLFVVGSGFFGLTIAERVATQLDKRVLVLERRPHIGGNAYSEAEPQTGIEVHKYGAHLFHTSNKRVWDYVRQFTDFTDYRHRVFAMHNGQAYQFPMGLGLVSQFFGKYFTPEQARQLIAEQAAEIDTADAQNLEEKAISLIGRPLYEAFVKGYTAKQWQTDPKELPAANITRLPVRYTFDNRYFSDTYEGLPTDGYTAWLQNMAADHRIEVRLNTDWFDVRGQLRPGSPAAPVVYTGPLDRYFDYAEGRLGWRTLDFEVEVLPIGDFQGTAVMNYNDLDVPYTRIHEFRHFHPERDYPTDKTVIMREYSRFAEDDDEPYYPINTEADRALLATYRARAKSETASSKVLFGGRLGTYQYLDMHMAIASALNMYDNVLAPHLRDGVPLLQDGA

SMILES	MIC (M. tuberculosis H37Ra; [4]) [µg/mL]	MIC (M. tuberculosis H37Ra; [6]) [µg/mL]	also measured
O=C(Nc1cccc(Cl)c1)c1ccc([N+](=O)[O-])o1 [Compound 10, 5-Nitro-furan-2-carboxylic acid(3-chloro-phenyl)-amide]			enzymatic inhibition of Glf [1]: best inhibitors of GIf; maximum tolerated dosing, observed effect [2]: no effect at the maximum dose
O=C(Nc1cccc(F)c1)c1ccc([N+](=O)[O-])o1 [Compound 12, 5-Nitro-furan-2-carboxylic acid(3-fluoro-phenyl)-amide]			maximum tolerated dosing, observed effect [2]: no effect at the maximum dose
COc1cccc(NC(=O)c2ccc([N+](=O)[O-])o2)c1 [Compound 13, 5-Nitro-furan-2-carboxylic acid(3-methoxy-phenyl)-amide]			enzymatic inhibition of Glf [1]: best inhibitors of GIf; maximum tolerated dosing, observed effect [2]: some pathology at 500 mg/kg
COc1ccc(CNC(=O)c2ccc([N+](=O)[O-])o2)cc1OC [Compound 23, 5-Nitro-furan-2-carboxylic acid 3,4-dimethoxy-benzylamide]			oral activity against M. tuberculosis in the mouse infection model (M. tuberculosis): significant oral activity; MIC (M. tuberculosis H37Ra; [3]): 200 µg/mL (≈ 653 µM); MIC (M. tuberculosis H37Ra; Mycobacterium tuberculosis, H37RA, 168 h, read-out: TB MIC, Table 1, M. tuberculosis H37Ra, 7 days, MIC90 (>90% inhibition of growth)): 0.2 µg/mL (≈ 0.653 µM); MIC activity compared with classical TB drugs (FIG. 1) (M. tuberculosis H37Ra; against H37Ra, in words): as active as ethambutol and streptomycin; maximum tolerated dosing, observed effect [2]: no effect at the maximum dose
O=C(c1ccc([N+](=O)[O-])o1)N1CCC(Cc2ccccc2)CC1 [Compound 72]	0.29 (≈ 0.923 µM)		
O=C(c1ccc([N+](=O)[O-])o1)N1CCN(Cc2ccccc2)CC1 [Compound 73]	0.59 (≈ 1.87 µM)		
O=C(NCc1ccc2c(c1)OCO2)c1ccc([N+](=O)[O-])o1 [Compound 74]	0.15 (≈ 0.517 µM)		
COc1cc2c(cc1OC)CN(C(=O)c1ccc([N+](=O)[O-])o1)CC2 [Compound 75]	0.15 (≈ 0.451 µM)		
CN1CCN(C(=O)c2ccc([N+](=O)[O-])o2)CC1 [Compound 76]	37.5 (≈ 157 µM)		MIC (M. tuberculosis H37Ra; [3]): 37.5 µg/mL (≈ 157 µM)
O=C(c1ccc([N+](=O)[O-])o1)N1CCN(c2ncccn2)CC1 [Compound 77]			MIC (M. tuberculosis H37Ra; [5]): 0.025 µg/mL (≈ 0.0824 µM)
CC(C)NC(=O)CN1CCN(C(=O)c2ccc([N+](=O)[O-])o2)CC1 [Compound 78]	6.25 (≈ 19.3 µM)		
O=C(c1ccc([N+](=O)[O-])o1)N1CCC(O)(Cc2ccccc2)CC1 [Compound 79]	1.56 (≈ 4.72 µM)		
O=C(c1ccc([N+](=O)[O-])o1)N1CCN(C2CCCCC2)CC1 [Compound 80]	6.25 (≈ 20.3 µM)		
O=C(c1ccc([N+](=O)[O-])o1)N1CCN(c2ncccn2)CC1 [Compound 81]			MIC (M. tuberculosis H37Ra; [5]): 0.1 µg/mL (≈ 0.33 µM)
COc1ccccc1N1CCN(C(=O)c2ccc([N+](=O)[O-])o2)CC1 [Compound 82]	1.56 (≈ 4.71 µM)		
O=C(c1ccc([N+](=O)[O-])o1)N1CCN(Cc2cccc(O)c2)CC1 [Compound 83]	0.8 (≈ 2.41 µM)		
O=C(c1ccc([N+](=O)[O-])o1)N1CCN(Cc2ccc(O)cc2)CC1 [Compound 84]	1.56 (≈ 4.71 µM)		
COc1ccc(CN2CCN(C(=O)c3ccc([N+](=O)[O-])o3)CC2)cc1 [Compound 85]	< 0.1		
COc1cccc(CN2CCN(C(=O)c3ccc([N+](=O)[O-])o3)CC2)c1 [Compound 86]	1.56 (≈ 4.52 µM)		

SMILES	MIC (M. tuberculosis H37Ra; [4]) [µg/mL]	MIC (M. tuberculosis H37Ra; [6]) [µg/mL]	also measured
O=C(c1ccc([N+](=O)[O-])o1)N1CCN(Cc2cccc(OCc3ccccc3)c2)CC1 [Compound 87]	1.56 (≈ 3.7 µM)		
CCN(CC)c1ccc(CN2CCN(C(=O)c3ccc([N+](=O)[O-])o3)CC2)cc1 [Compound 88]	< 0.1		
COc1ccc(CN2CCN(C(=O)c3ccc([N+](=O)[O-])o3)CC2)c(OC)c1 [Compound 89]	< 0.1		
CC(=O)c1ccc(N2CCN(C(=O)c3ccc([N+](=O)[O-])o3)CC2)cc1 [Compound 91]	< 10.1		
O=C(NCc1ccc(N2CCSCC2)cc1)c1ccc([N+](=O)[O-])o1 [Compound 92, 5-Nitro-furan-2-carboxylic acid 4-thiomorpholin-4-yl-benzylamide]		0.05 (≈ 0.144 µM)	
NC1CCN(c2ccc(CNC(=O)c3ccc([N+](=O)[O-])o3)cc2)C1 (stereo not drawn) [Compound 95, 5-Nitro-furan-2-carboxylic acid 4-(3-amino-pyrrolidin-1-yl)-benzylamide]		0.8 (≈ 2.42 µM)	
CC(C)(C)OC(=O)N1CCN(c2ccc(CNC(=O)c3ccc([N+](=O)[O-])o3)cc2)CC1 [Compound 96, 4-(4-{[(5-Nitro-furan-2-carbonyl)-amino]-methyl}-phenyl)-piperazine-1-carboxylic acid tert-butyl ester]		0.0002 (≈ 0.000465 µM)	
O=C(NCc1ccc(N2CCNCC2)cc1)c1ccc([N+](=O)[O-])o1 [Compound 97, 5-Nitro-furan-2-carboxylic acid 4-piperazin-1-yl-benzylamide]		0.8 (≈ 2.42 µM)	
O=C(NCc1ccc(N2CCN(CC3CC3)CC2)cc1)c1ccc([N+](=O)[O-])o1 [Compound 98, 5-Nitro-furan-2-carboxylic acid 4-(4-cyclopropylmethyl-piperazin-1-yl)-benzylamide]		0.05 (≈ 0.13 µM)	
O=C(NCc1ccc(N2CCN(Cc3ccccc3)CC2)c(F)c1)c1ccc([N+](=O)[O-])o1 [Compound 99, 5-Nitro-furan-2-carboxylic acid 4-(4-benzyl-piperazin-1-yl)-3-fluoro-benzylamide]		0.0125 (≈ 0.0285 µM)	
CN1CCN(c2ccc(CNC(=O)c3ccc([N+](=O)[O-])o3)cc2F)CC1 [Compound 100, 5-Nitro-furan-2-carboxylic acid 3-fluoro-4-(4-methyl-piperazin-1-yl)-benzylamide]		0.4 (≈ 1.1 µM)	
O=C(NCc1ccc(N2CCSCC2)c(F)c1)c1ccc([N+](=O)[O-])o1 [Compound 101, 5-Nitro-furan-2-carboxylic acid 3-fluoro-4-thiomorpholin-4-yl-benzylamide]		0.2 (≈ 0.547 µM)	
O=C(NCc1ccc(N2CCOCC2)c(F)c1)c1ccc([N+](=O)[O-])o1 [Compound 102, 5-Nitro-furan-2-carboxylic acid 3-fluoro-4-morpholin-4-yl-benzylamide]		0.2 (≈ 0.573 µM)	
O=C(NCc1ccc(N2CCC(Cc3ccccc3)CC2)c(F)c1)c1ccc([N+](=O)[O-])o1 [Compound 103, 5-Nitro-furan-2-carboxylic acid 4-(4-benzyl-piperidin-1-yl)-3-fluoro-benzylamide]		0.0125 (≈ 0.0286 µM)	
CCOC(=O)N1CCN(c2ccc(CNC(=O)c3ccc([N+](=O)[O-])o3)cc2)CC1 [Compound 104, 4-(4-{[(5-Nitro-furan-2-carbonyl)-amino]-methyl}-phenyl)-piperazine-1-carboxylic acid ethyl ester]		0.004 (≈ 0.00994 µM)	
CCCNC(=O)N1CCN(c2ccc(CNC(=O)c3ccc([N+](=O)[O-])o3)cc2)CC1 [Compound 105, 4-(4-{[(5-Nitro-furan-2-carbonyl)-amino]-methyl}-phenyl)-piperazine-1-carboxylic acid propylamide]		0.0125 (≈ 0.0301 µM)	
CC(C)NC(=O)N1CCN(c2ccc(CNC(=O)c3ccc([N+](=O)[O-])o3)cc2)CC1 [Compound 106, 4-(4-{[(5-Nitro-furan-2-carbonyl)-amino]-methyl}-phenyl)-piperazine-1-carboxylic acid isopropylamide]		0.0062 (≈ 0.0149 µM)	
NNC(=O)c1ccncc1 [Isoniazid, isoniazid, reference compound]			MIC90 (M. tuberculosis H37Ra; [3]): 0.05 µg/mL (≈ 0.365 µM)
CC[C@@H](CO)NCCN[C@@H](CC)CO [ethambutol, reference compound]			MIC90 (M. tuberculosis H37Ra; [3]): 0.78 µg/mL (≈ 3.82 µM)

Reference: US20050026968A1, “Heterocyclic amides with anti-tuberculosis activity” (priority 2003, published 2005)
